Earlier results as cited in patent US20170058346A1, “Methods Employing Non-Coding RNA Expression Assays” (SISTEMIC SCOTLAND LIMITED, priority 2009, published 2017).

Test system: HDAC
Conditions: from a literature review

C[S+](C)[O-] [DMSO, dimethyl sulphoxide]
HDAC inhibitor activity: shown to be an HDAC inhibitor
